Measured values: ChEMBL document CHEMBL1938263, “Design, synthesis, biological evaluation, and comparative Cox1 and Cox2 docking of p-substituted benzylidenamino phenyl esters of ibuprofenic and mefenamic acids” (Bioorg Med Chem, 2012)

Assays:
Mus musculus [1] = experiment: Analgesic activity in mouse assessed as latency time of paw licking as nociceptive response at 250 mg/kg, po after 1.5 hrs by hot plate test (reference value: 16.8 +/- 2.12 sec); format: functional
Rattus norvegicus [2] = experiment: Ulcerogenic activity in fasted Wistar albino rat assessed as severity of ulcer at 100 mg/kg, po after 5 hrs; format: toxicity, organism-based; parameters: dose 100 mg/kg, route oral; settings: in vivo
Mus musculus [3] = experiment: Analgesic activity in mouse assessed as latency time of jumping as nociceptive response at 250 mg/kg, po after 1 hr by hot plate test (reference value: 14.3 +/- 0.99 sec); format: functional
Rattus norvegicus [4] = experiment: Ulcerogenic activity in fasted Wistar albino rat assessed as ulcer index at 100 mg/kg, po after 5 hrs; format: toxicity, organism-based; parameters: dose 100 mg/kg, route oral; settings: in vivo
Mus musculus [5] = experiment: Analgesic activity in mouse assessed as latency time of jumping as nociceptive response at 250 mg/kg, po after 0.5 hrs by hot plate test (reference value: 11.16 +/- 1.66 sec); format: functional
Rattus norvegicus [6] = experiment: Antiinflammatory activity in Wistar CF rat assessed as inhibition of carrageenan-induced paw oedema at 100 mg/kg, po administered 1 hr prior to carrageenan-challenge after 4 hrs (reference value: 78.14 +/- 7.1 %); format: functional
Mus musculus [7] = experiment: Analgesic activity in mouse assessed as latency time of paw licking as nociceptive response at 250 mg/kg, po after 1 hr by hot plate test (reference value: 14.3 +/- 0.99 sec); format: functional
Mus musculus [8] = experiment: Analgesic activity in mouse assessed as latency time of jumping as nociceptive response at 250 mg/kg, po after 1.5 hrs by hot plate test (reference value: 16.8 +/- 2.12 sec); format: functional
Rattus norvegicus [9] = experiment: Antiinflammatory activity in Wistar CF rat assessed as inhibition of carrageenan-induced paw oedema at 100 mg/kg, po administered 1 hr prior to carrageenan-challenge after 3 hrs (reference value: 74.63 +/- 7.13 %); format: functional
Mus musculus [10] = experiment: Analgesic activity in mouse assessed as latency time of paw licking as nociceptive response at 250 mg/kg, po after 0.5 hrs by hot plate test (reference value: 11.16 +/- 1.66 sec); format: functional
Rattus norvegicus [11] = experiment: Antiinflammatory activity in Wistar CF rat assessed as inhibition of carrageenan-induced paw oedema at 100 mg/kg, po administered 1 hr prior to carrageenan-challenge after 2 hrs (reference value: 68.6 +/- 7.14 %); format: functional
Rattus norvegicus [12] = experiment: Antiinflammatory activity in Wistar CF rat assessed as inhibition of carrageenan-induced paw oedema at 100 mg/kg, po administered 1 hr prior to carrageenan-challenge after 1 hr (reference value: 55.7 +/- […] %); format: functional

## CC(C)Cc1ccc(C(C)C(=O)O)cc1 (racemic) [IBUPROFEN]
Mus musculus [1]
  Time: 19 s
Rattus norvegicus [2]
  Activity: Toxic
Mus musculus [3]
  Time: 16.1 s
Rattus norvegicus [4]
  UI: 4.03
Mus musculus [5]
  Time: 17.84 s
Rattus norvegicus [6]
  inhibition in vivo at 100 mg/kg: 44%
Mus musculus [7]
  Time: 16.1 s
Mus musculus [8]
  Time: 19 s
Rattus norvegicus [9]
  inhibition in vivo at 100 mg/kg: 41.8%
Mus musculus [10]
  Time: 17.84 s
Rattus norvegicus [11]
  inhibition in vivo at 100 mg/kg: 36.2%
Rattus norvegicus [12]
  inhibition in vivo at 100 mg/kg: 30%

## Cc1cccc(Nc2ccccc2C(=O)Oc2ccc(/N=C/c3ccc(N(C)C)cc3)cc2)c1C
Mus musculus [1]
  Time: 15.96 s
Rattus norvegicus [2]
  Activity: Non-toxic
Mus musculus [3]
  Time: 24.4 s
Rattus norvegicus [4]
  UI: 0
Mus musculus [5]
  Time: 23.16 s
Rattus norvegicus [6]
  inhibition in vivo at 100 mg/kg: 63.5%
Mus musculus [7]
  Time: 24.4 s
Mus musculus [8]
  Time: 15.96 s
Rattus norvegicus [9]
  inhibition in vivo at 100 mg/kg: 53.4%
Mus musculus [10]
  Time: 23.16 s
Rattus norvegicus [11]
  inhibition in vivo at 100 mg/kg: 45.6%
Rattus norvegicus [12]
  inhibition in vivo at 100 mg/kg: 41.6%

## COc1ccc(/C=N/c2ccc(OC(=O)C(C)c3ccc(CC(C)C)cc3)cc2)cc1 (stereo not drawn)
Mus musculus [1]
  Time: 28.1 s
Rattus norvegicus [2]
  Activity: Non-toxic
Mus musculus [3]
  Time: 35.14 s
Rattus norvegicus [4]
  UI: 0
Mus musculus [5]
  Time: 20.18 s
Rattus norvegicus [6]
  inhibition in vivo at 100 mg/kg: 64.7%
Mus musculus [7]
  Time: 35.14 s
Mus musculus [8]
  Time: 28.1 s
Rattus norvegicus [9]
  inhibition in vivo at 100 mg/kg: 61.2%
Mus musculus [10]
  Time: 20.18 s
Rattus norvegicus [11]
  inhibition in vivo at 100 mg/kg: 56.2%
Rattus norvegicus [12]
  inhibition in vivo at 100 mg/kg: 54%

## CC(C)Cc1ccc(C(C)C(=O)Oc2ccc(/N=C/c3ccc([N+](=O)[O-])cc3)cc2)cc1 (stereo not drawn)
Mus musculus [1]
  Time: 24.98 s
Rattus norvegicus [2]
  Activity: Non-toxic
Mus musculus [3]
  Time: 34.62 s
Rattus norvegicus [4]
  UI: 0
Mus musculus [5]
  Time: 23.52 s
Rattus norvegicus [6]
  inhibition in vivo at 100 mg/kg: 53.8%
Mus musculus [7]
  Time: 34.62 s
Mus musculus [8]
  Time: 24.98 s
Rattus norvegicus [9]
  inhibition in vivo at 100 mg/kg: 50.3%
Mus musculus [10]
  Time: 23.52 s
Rattus norvegicus [11]
  inhibition in vivo at 100 mg/kg: 44.4%
Rattus norvegicus [12]
  inhibition in vivo at 100 mg/kg: 29.9%

## CC(C)Cc1ccc(C(C)C(=O)Oc2ccc(/N=C/c3ccc(N(C)C)cc3)cc2)cc1 (stereo not drawn)
Mus musculus [1]
  Time: 23 s
Rattus norvegicus [2]
  Activity: Non-toxic
Mus musculus [3]
  Time: 32.14 s
Rattus norvegicus [4]
  UI: 0
Mus musculus [5]
  Time: 22.22 s
Rattus norvegicus [6]
  inhibition in vivo at 100 mg/kg: 107%
Mus musculus [7]
  Time: 32.14 s
Mus musculus [8]
  Time: 23 s
Rattus norvegicus [9]
  inhibition in vivo at 100 mg/kg: 104%
Mus musculus [10]
  Time: 22.22 s
Rattus norvegicus [11]
  inhibition in vivo at 100 mg/kg: 96.1%
Rattus norvegicus [12]
  inhibition in vivo at 100 mg/kg: 71.7%

## CC(C)Cc1ccc(C(C)C(=O)Oc2ccc(/N=C/c3ccc(Br)cc3)cc2)cc1 (stereo not drawn)
Mus musculus [1]
  Time: 26.12 s
Rattus norvegicus [2]
  Activity: Non-toxic
Mus musculus [3]
  Time: 33.44 s
Rattus norvegicus [4]
  UI: 0
Mus musculus [5]
  Time: 19.62 s
Rattus norvegicus [6]
  inhibition in vivo at 100 mg/kg: 49.3%
Mus musculus [7]
  Time: 33.44 s
Mus musculus [8]
  Time: 26.12 s
Rattus norvegicus [9]
  inhibition in vivo at 100 mg/kg: 44.7%
Mus musculus [10]
  Time: 19.62 s
Rattus norvegicus [11]
  inhibition in vivo at 100 mg/kg: 40.6%
Rattus norvegicus [12]
  inhibition in vivo at 100 mg/kg: 36.5%

## Cc1cccc(Nc2ccccc2C(=O)Oc2ccc(/N=C/c3ccc([N+](=O)[O-])cc3)cc2)c1C
Mus musculus [1]
  Time: 20.82 s
Rattus norvegicus [2]
  Activity: Non-toxic
Mus musculus [3]
  Time: 25.98 s
Rattus norvegicus [4]
  UI: 0
Mus musculus [5]
  Time: 18.04 s
Rattus norvegicus [6]
  inhibition in vivo at 100 mg/kg: 52.5%
Mus musculus [7]
  Time: 25.98 s
Mus musculus [8]
  Time: 20.82 s
Rattus norvegicus [9]
  inhibition in vivo at 100 mg/kg: 43.8%
Mus musculus [10]
  Time: 18.04 s
Rattus norvegicus [11]
  inhibition in vivo at 100 mg/kg: 41.1%
Rattus norvegicus [12]
  inhibition in vivo at 100 mg/kg: 36.9%

## COc1ccc(/C=N/c2ccc(OC(=O)c3ccccc3Nc3cccc(C)c3C)cc2)cc1
Mus musculus [1]
  Time: 18.46 s
Rattus norvegicus [2]
  Activity: Non-toxic
Mus musculus [3]
  Time: 25.08 s
Rattus norvegicus [4]
  UI: 0
Mus musculus [5]
  Time: 21.68 s
Rattus norvegicus [6]
  inhibition in vivo at 100 mg/kg: 62.1%
Mus musculus [7]
  Time: 25.08 s
Mus musculus [8]
  Time: 18.46 s
Rattus norvegicus [9]
  inhibition in vivo at 100 mg/kg: 57%
Mus musculus [10]
  Time: 21.68 s
Rattus norvegicus [11]
  inhibition in vivo at 100 mg/kg: 49.4%
Rattus norvegicus [12]
  inhibition in vivo at 100 mg/kg: 35.2%

## Cc1cccc(Nc2ccccc2C(=O)Oc2ccc(/N=C/c3ccc(Br)cc3)cc2)c1C
Mus musculus [1]
  Time: 19.38 s
Rattus norvegicus [2]
  Activity: Non-toxic
Mus musculus [3]
  Time: 21.22 s
Rattus norvegicus [4]
  UI: 0
Mus musculus [5]
  Time: 20.72 s
Rattus norvegicus [6]
  inhibition in vivo at 100 mg/kg: 51.7%
Mus musculus [7]
  Time: 21.22 s
Mus musculus [8]
  Time: 19.38 s
Rattus norvegicus [9]
  inhibition in vivo at 100 mg/kg: 46.5%
Mus musculus [10]
  Time: 20.72 s
Rattus norvegicus [11]
  inhibition in vivo at 100 mg/kg: 38.5%
Rattus norvegicus [12]
  inhibition in vivo at 100 mg/kg: 32%
